This note sets out measurements from US10378034B2, “Use of a N-acetylneuraminate lyase derived from the bacterium Aliivibrio salmonicida in the production of neuraminic acid and derivatives thereof” (Universitetet i Tromsø-Norges Arktiske Universitet, priority 2014, dated 2019).

In data set [1] the test system is CC(=O)N[C@H]1[C@H]([C@H](O)[C@H](O)CO)OC(O)(C(=O)O)C[C@@H]1O. The data set is described as follows: LDH-coupled continuous assay, enzyme kinetics for the cleavage reaction of Neu5Ac (AsNAL). It counts as biochemical, Aliivibrio salmonicida. As to conditions: other: cleavage reaction, Neu5Ac 1-90 mM, 50 mM Tris-HCl pH 8.5, 37° C. The protocol: (§1) Further, the enzyme kinetics for the cleavage reactions were studied using a lactate dehydrogenase (LDH)-coupled continuous assay (Comb and Roseman, 1960; Wang and Lee, 2006). The incubation mixtures contained variable amounts (1, 5, 15, 30, 45, 60, 75 and 90 mM) of Neu5Ac, 50 mM Tris-HCl, pH 8.5, 0.15 mM NADH (Sigma), 4U LDH (Sigma) and 0.315 μg of NAL in final volumes of 200 μl. Components, except the enzyme, were mixed and incubated at 37° C. for 5 min before the reactions were started by adding the specific enzyme. The measurements were done in triplicates. The decrease in absorbance at 340 nm corresponding to the oxidation of NADH by LDH in presence of released pyruvate was measured spectrophotometrically using a Spectramax M2e Microplate reader. Initial velocities were calculated using the SoftMax Pro software (Molecular Devices) and subsequently fitted to the Michaelis-Menten equation using the program GraphPad Prism 5 (GraphPad Software Inc.). The kcat values were calculated using the formula Vmax/[Enzyme]. The relationship between absorbance and substrate concentration was calculated from a standard-curve obtained by measuring the maximum absorbance from various substrate concentrations. The relationship is given by the formula: y=0.0031x+0.0052, where x is the pyruvate concentration. By using this formula, values of Vmax were converted from mOD/min to μM/min. Enzyme concentrations were converted from mg/ml to molar using the calculated molecular mass of 32257.9 g/mol (monomeric protein).
(§2) The AsNAL Michaelis constant (KM) is somewhat higher than the KM obtained for EcNAL. However, the turnover number, kcat, is strikingly higher than for EcNAL.

For data set [2], the system named is AsNAL. Kind of data set: Production of Neu5,7Ac2/Neu5,8Ac2/Neu5,9Ac2 and legionaminic acid by AsNAL (DMB-HPLC-MS). The class given is biochemical, Aliivibrio salmonicida. To be noted: for RT 3.29 (Area), legionaminic acid / 468.1613@3.56 Area (Neu5,7Ac2) / 468.1613@4.05 Area (Neu5,8Ac2) / 468.1613@4.4 Area (Neu5,9Ac2): 15 mM substrate, 15 mM pyruvate, 28 μg AsNAL, HEPES pH 8.0. The protocol: 15 mM of 4-O-acetyl-2-N-acetylmannosamine (4-OAc-ManNAc) or 2,4-diacetamino-2,4,6-trideoxymannose, 15 mM of pyruvate, 28 μg of enzyme (AsNAL), 124 mM HEPES buffer, pH 8.0 and dH2O were mixed in a tube to a total volume of 200 μl. Aliquots were sampled after 1.0, 1.5 and 4.0 h for production of di-acetylated Neus. For production of Legionaminic acid aliquots were sampled after 1.0 and 3.0 h. Reactions were terminated by addition of 2 μl concentrated H2SO4. Samples were passed over Amicon Ultra spin-columns with a 10000 molecular weight cut-off (Millipore) to remove high molecular weight compounds. The low molecular weight fractions were then used in DMB-HPLC coupled to mass spectrometric analyses. Derivatization of samples with DMB were performed according to protocol given by the supplier (Sialic Acid Fluorescence Labeling Kit, Takara Inc.). Reactions were carried out for 2.5 hours at 50° C. in the dark. A reference panel with a mixture of the Sias; Neu5Gc, Neu5Ac, Neu5,7Ac2, Neu5Gc9Ac, Neu5,9Ac2 and Neu5, (7/8)9Ac3 (ProZyme Inc.) were also subjected to derivatization with DMB. DMB-labeled sialic acids were separated by HPLC using Accela HPLC (Thermo Scientific) on a LTQ Orbitrap XL Fourier Transform Mass Spectrometer (FTMS) with an Electrospray ion source (Thermo Scientific) using a positive ion profile mode fullscan (+pESI). The column used was a Hypersil Gold 50×2.1 mm, 1.9 μm reversed-phase C18 column (Thermo scientific).). Elution was achieved using water with 0.1% formic acid (A) and acetonitrile with 0.1% formic acid (B) at a flow rate of 400 μl/min.
The analytical conditions were set to 300° C. for capillary temperature, 4.5 kV spray voltage, m/z 350-550 scan range and 35% collision energy. The MS/MS was targeted on the masses m/z 426.15, m/z 468.16 and m/z 451.18 using Ion trap MS (ITMS)+cESI with full MS2 in scan range m/z 125-480, corresponding to the DMB derivates DMB-Neu5Ac, DMB-di-acetylated Neu and DMB-Leg.

In data set [3] the test system is AsNAL. The data set is described as follows: Cleavage of Neu5Ac, Neu5Gc and KDN by AsNAL (TBA assay). It counts as biochemical, Aliivibrio salmonicida. To be noted: 5 mM substrate, 6.6 μg AsNAL, HEPES pH 8.0, 1 h room temperature. The protocol:
The cleavage reaction of AsNAL contained 6.6 μg of AsNAL, 5 mM Neu5Gc or KDN and 124 mM HEPES buffer pH 8.0. For blank (H2O) and positive control the same components of the reactions were used, but the amount of enzyme was replaced by assay buffer. All reactions were filled up to a total volume of 50 μL with dH2O. The assay was performed in triplicate. After 1 h incubation at room temperature, the enzyme reaction was stopped by adding 2 μL concentrated H2SO4. The thiobarbituric acid (TBA) assay procedure was followed to determine the amount cleaved.

For data set [4], the target named is Aliivibrio salmonicida LFI1238 N-acetylneuraminate lyase (AsNAL), wild type, SEQ ID NO: 1 (Aliivibrio salmonicida, UniProt B6EI04). The data set is described as follows: LDH-coupled continuous assay, enzyme kinetics for the cleavage reaction of Neu5Ac (AsNAL). It counts as biochemical. As to conditions: Neu5Ac 1-90 mM, 50 mM Tris-HCl pH 8.5, 37° C. The protocol: as §1, §2

In data set [5] the target is T1, E. coli N-acetylneuraminate lyase (EcNAL), commercially available (Sigma) (Escherichia coli, UniProt P0A6L4).
T1 sequence (P0A6L4 1-297): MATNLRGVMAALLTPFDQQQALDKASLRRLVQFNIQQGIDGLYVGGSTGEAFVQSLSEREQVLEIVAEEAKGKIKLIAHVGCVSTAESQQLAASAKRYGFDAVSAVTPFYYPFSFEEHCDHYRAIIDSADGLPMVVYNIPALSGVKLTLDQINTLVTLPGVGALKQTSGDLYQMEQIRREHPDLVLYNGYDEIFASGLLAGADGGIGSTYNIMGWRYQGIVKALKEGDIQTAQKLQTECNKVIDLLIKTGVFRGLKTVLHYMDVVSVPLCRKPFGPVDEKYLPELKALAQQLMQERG
Kind of data set: LDH-coupled continuous assay, enzyme kinetics for the cleavage reaction of Neu5Ac (EcNAL). The class given is biochemical. As to conditions: Neu5Ac 1-90 mM, 50 mM Tris-HCl pH 8.5, 37° C. The protocol:
as §1, with “The relationship is given by the formula: y=0.0031x+0.0052, where x is the pyruvate concentration. By using this formula, values of Vmax were converted from mOD/min to μM/min.” left out, “protein). […]” for “protein).”

A short description of data set [6]: Integrated reaction: Neu5Ac production from GlcNAc and pyruvate at alkaline pH (TBA assay). It counts as biochemical. Here is the method:
For ManNAc reactions, the buffer used was HEPES, pH 8.0. […] Experiments were performed in triplicate. For ManNAc experiments, aliquots were sampled after 0.5, 1.0, 1.5, 2.5 and 4.0 h. For GlcNAc experiments, aliquots were sampled after 12, 24, 36, 48 and 72 h. Reactions were terminated by addition of 2 μl concentrated H2SO4. The time needed for N-acetylneuraminic acid (Neu5Ac) production to get started under these conditions was known to take longer time based on initial test experiments. The thiobarbituric acid (TBA) assay procedure was followed to determine the amount of Neu5Ac produced. The activity was corrected for a blank value. The blank contained all the reaction components except for enzyme.
Initially, also glycine buffer was tested at pH 10.5 and pH 11.0 for the reactions with GlcNAc. GlcNAc will chemically epimerize to ManNAc at pH values above 9.0, which the enzyme will use as substrate for the production of Neu5Ac. The epimerization is pH dependent and will increase with increasing pH. Production of Neu5Ac was higher in CAPS buffer compared to glycine buffer, so this was chosen for further experiments.

Consider “Aliivibrio salmonicida LFI1238 N-acetylneuraminate lyase (AsNAL), wild type, SEQ ID NO: 1 (Aliivibrio salmonicida LFI1238)”, for which, in data set [1], the Km (as a rule, the substrate concentration at which the rate is half of its maximum) was determined as 53.88 ± 6.55 mM; the kcat (usually the number of substrate molecules converted per active site and unit of time at saturation) came to 19.1 s⁻¹; the kcat/Km – broadly, the second-order rate constant that governs catalysis at low substrate concentration – was determined as 354 M⁻¹ s⁻¹.

As to `CC(=O)N[C@@H]([C@H](O)[C@@H](C=O)NC(C)=O)[C@@H](C)O` [2,4-diacetamino-2,4,6-trideoxymannose], the “RT 3.29 (Area), legionaminic acid” value was found to be 902252 with AsNAL [2] (1 h) and 1663378 with AsNAL [2] (3 h).

As for `O=C(O)C(=O)C[C@H](O)[C@@H](O)[C@@H](O)[C@H](O)[C@H](O)CO` [KDN, 2-keto-3-deoxy-D-glycero-D-galacto-nononic acid], in the data set on AsNAL [3], the “% cleaved” value was 50.0%, the “Cleaved (OD)” value amounted to 2.658 ± 0.130 and the “OD sample-blank (measures uncleaved substrate)” value (“OD sample-blank” below) was determined as 2.662 ± 0.130.

Regarding `O=C(CO)N[C@H]1[C@H]([C@H](O)[C@H](O)CO)OC(O)(C(=O)O)C[C@@H]1O` (stereo partly shown) [Neu5Gc, N-glycolylneuraminic acid], in the data set on AsNAL [3], the “% cleaved” value worked out at 73.9%, the “Cleaved (OD)” value came to 4.018 ± 0.076 and the “OD sample-blank” value was determined as 1.422 ± 0.076.

For the molecule `CC(=O)N[C@H]1[C@H]([C@H](O)[C@H](O)CO)OC(O)(C(=O)O)C[C@@H]1O` (stereo partly shown) [Neu5Ac, N-acetylneuraminic acid], the Vmax in data set [4] came out at 315.5 ± 18.5. Also, in the data set on AsNAL [3], the “% cleaved” value amounted to 82.6%, the “Cleaved (OD)” value was determined as 4.984 ± 0.016 and the “OD sample-blank” value came out at 1.048 ± 0.016. Also, the Vmax in data set [5] came to 208.9 ± 16.7.

`CC(=O)N[C@@H]1C(O)O[C@H](CO)[C@@H](OC(C)=O)[C@@H]1O` (stereo partly shown) [4OAc-ManNAc, 4-O-acetyl-2-N-acetylmannosamine]: the “468.1613@3.56 Area (Neu5,7Ac2)” value with AsNAL [2] (1 hour) came to 3258981; in the data set on AsNAL [2] (1.5 hours), 4048804; with AsNAL [2] (4 hours), 4484920. Besides, the “468.1613@4.05 Area (Neu5,8Ac2)” value in the data set on AsNAL [2] (1 hour) was determined as 4611697; in the data set on AsNAL [2] (1.5 hours), 5467510; in the data set with AsNAL [2] (4 hours), 6019425. Also, the “468.1613@4.4 Area (Neu5,9Ac2)” value in the data set on AsNAL [2] (1 hour) is reported as 20834893; in the data set with AsNAL [2] (1.5 hours), 23706892; in the data set with AsNAL [2] (4 hours), 26500427. Also, the “production of Neu5,9Ac2, Neu5,7Ac2 and Neu5,8Ac2 relative to ManNAc as a substrate” value in the data set with AsNAL [2] (same conditions, pH 8.0, asNAL) was 30-40%.

B1: EcNAL: commercially available N-acetylneuraminate lyase from E. coli (Sigma) (protein, UniProt P0A6L4 2-297, looked up)
N-acetylneuraminate lyase: ATNLRGVMAALLTPFDQQQALDKASLRRLVQFNIQQGIDGLYVGGSTGEAFVQSLSEREQVLEIVAEEAKGKIKLIAHVGCVSTAESQQLAASAKRYGFDAVSAVTPFYYPFSFEEHCDHYRAIIDSADGLPMVVYNIPALSGVKLTLDQINTLVTLPGVGALKQTSGDLYQMEQIRREHPDLVLYNGYDEIFASGLLAGADGGIGSTYNIMGWRYQGIVKALKEGDIQTAQKLQTECNKVIDLLIKTGVFRGLKTVLHYMDVVSVPLCRKPFGPVDEKYLPELKALAQQLMQERG
As to B1, the “production of Neu5Ac (in words)” value in data set [6] (pyruvate and GlcNAc 4:1, CAPS pH 11.0) is reported as “low”; in data set [6] (pyruvate and GlcNAc, CAPS pH 11.5), “no production was observed”.
